Measurements from patent US20240084353A1, “PROCESS TO PRODUCE MONO-RHAMNOLIPIDS” (Conopco, Inc., d/b/a UNILEVER, priority 2021, published 2024).

Test system: α-L-rhamnosidase from A. terreus
Test: Influence of rhamnose excess on rhamnosidase activity (product inhibition)
Assay type: biochemical, Aspergillus terreus
Details: pNPR substrate, rhamnose solutions 0.6-3 mM added 1:1:1, pH 6.5, 40° C., 30 minutes
Method: The activity is expressed as the changes in time of the relative absorbance at 405 nm. The absorbance was measured every 30 sec. Substrate was used at 100 μM. The analysis was performed only for α-l-rhamnosidase from A. terreus. The influence of rhamnose excess on enzyme activity was investigated using the same colorimetric method as described above (See FIG. 1). The pNPR substrate was first dissolved in DMSO, with concentration adjusted to 300 μM in 100 mM sodium phosphate buffer pH 6.5. Enzymes were diluted to concentration of 30 μg/mL in 100 mM sodium phosphate buffer pH 6.5. Following sequence of rhamnose concentrations were prepared in 100 mM sodium phosphate buffer pH 6.5: 0.6 mM, 1.2 mM, 1.8 mM, 2.4 mM, 3 mM. 240 μL of the total reaction mixture was prepared by adding the substrate solution, the enzyme solution and the rhamnose solution in 1:1:1 ratio. The activity assay was performed on 96-well Microtiter UV plate by Thermo Scientific (Waltham, MA USA). All reactions were done at pH 6.5 and in temperature 40° C. The changes in absorbance were monitored at 405 nm for 30 minutes in Microplate reader Varioskan® Flash.

- substrate conversion rate with increasing amount of rhamnose added: decreased
SMILES: C[C@H](O)[C@H](O)[C@@H](O)[C@@H](O)C=O [rhamnose]
